Here are results for 5 cell lines from the supplement of paper PMC10307832.

Test in all cases: relative viability (nuclei count vs DMSO), 5 days (fraction); higher = more cells survive
Compound in the assay “SGI-1776 + Navitoclax”: CN1CCC(CNc2ccc3ncc(-c4cccc(OC(F)(F)F)c4)n3n2)CC1 [SGI-1776] + CC1(C)CCC(c2ccc(Cl)cc2)=C(CN2CCN(c3ccc(C(=O)NS(=O)(=O)c4ccc(N[C@H](CCN5CCOCC5)CSc5ccccc5)c(S(=O)(=O)C(F)(F)F)c4)cc3)CC2)C1 [Navitoclax] (partner 0.5 µM)
A digest of the protocol:
(§1)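 The day after seeding in 1536-well plates, lung cancer cell lines were treated by pin tool with a single drug, or with a fixed anchor-drug dose together with five library-drug doses (not always all listed) in √10 steps. After 5 days, a combined fix-and-stain solution (final 0.05% Triton X-100, 1% formaldehyde, 1 ug/ml Hoechst) was added. Nuclei counted on 4× images gave relative viability as treated counts over vehicle counts, reported as the median of duplicate plates.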

Compound in the assay “Entinostat + Palbociclib”: Nc1ccccc1NC(=O)c1ccc(CNC(=O)OCc2cccnc2)cc1 [Entinostat] + CC(=O)c1c(C)c2cnc(Nc3ccc(N4CCNCC4)cn3)nc2n(C2CCCC2)c1=O [Palbociclib] (partner 0.5 µM)
In short, it runs like this:
as §1

Compound in the assay “Entinostat + Luminespib”: Nc1ccccc1NC(=O)c1ccc(CNC(=O)OCc2cccnc2)cc1 [Entinostat] + CCNC(=O)c1noc(-c2cc(C(C)C)c(O)cc2O)c1-c1ccc(CN2CCOCC2)cc1 [Luminespib] (partner 0.01 µM)
A digest of the protocol:
as §1

Compound in the assay “Entinostat + Lapatinib”: Nc1ccccc1NC(=O)c1ccc(CNC(=O)OCc2cccnc2)cc1 [Entinostat] + CS(=O)(=O)CCNCc1ccc(-c2ccc3ncnc(Nc4ccc(OCc5cccc(F)c5)c(Cl)c4)c3c2)o1 [Lapatinib] (partner 2 µM)
A digest of the protocol:
as §1

In the case of PC-14, the relative viability in the assay with SGI-1776 + Navitoclax (first compound 0.08 µM) was determined as 0.97; in the assay with SGI-1776 + Navitoclax (first compound 0.8 µM) it was 1.05; with SGI-1776 + Navitoclax (first compound 2.53 µM) it was 1.04; with SGI-1776 + Navitoclax (first compound 8 µM), 0.93; in the assay with Entinostat + Palbociclib (first compound 0.02 µM), 0.521; with Entinostat + Palbociclib (first compound 0.06325 µM), 0.493. Further, the relative viability with Entinostat + Palbociclib (first compound 0.2 µM) was found to be 0.449; with Entinostat + Palbociclib (first compound 0.6325 µM) it was 0.157; in the assay with Entinostat + Palbociclib (first compound 2 µM) it was 0.0723; with Entinostat + Luminespib (first compound 0.02 µM), 0.135; in the assay with Entinostat + Luminespib (first compound 0.06325 µM) it was 0.256; with Entinostat + Luminespib (first compound 0.2 µM) it was 0.151. For the same cell line, the relative viability with Entinostat + Luminespib (first compound 0.6325 µM) was found to be 0.143; with Entinostat + Luminespib (first compound 2 µM), 0.114; with Entinostat + Lapatinib (first compound 0.02 µM), 0.293; with Entinostat + Lapatinib (first compound 0.06325 µM) it was 0.29; in the assay with Entinostat + Lapatinib (first compound 0.2 µM) it was 0.146; in the assay with Entinostat + Lapatinib (first compound 0.6325 µM), 0.151. In addition, the relative viability in the assay with Entinostat + Lapatinib (first compound 2 µM) turned out to be 0.105.
In the case of RERF-LC-KJ, the relative viability with SGI-1776 + Navitoclax (first compound 0.08 µM) was determined as 0.936; with SGI-1776 + Navitoclax (first compound 0.8 µM), 1.04; with SGI-1776 + Navitoclax (first compound 2.53 µM), 0.937; with SGI-1776 + Navitoclax (first compound 8 µM), 0.789; with Entinostat + Palbociclib (first compound 0.02 µM), 1.06; with Entinostat + Palbociclib (first compound 0.06325 µM) it was 1.09. The relative viability stood at 1 with Entinostat + Palbociclib (first compound 0.2 µM); 0.584 in the assay with Entinostat + Palbociclib (first compound 0.6325 µM); 0.278 in the assay with Entinostat + Palbociclib (first compound 2 µM); 1.13 with Entinostat + Luminespib (first compound 0.02 µM); 1.16 with Entinostat + Luminespib (first compound 0.06325 µM); 1.02 in the assay with Entinostat + Luminespib (first compound 0.2 µM). Also, the relative viability with Entinostat + Luminespib (first compound 0.6325 µM) is 0.438; with Entinostat + Luminespib (first compound 2 µM), 0.322; with Entinostat + Lapatinib (first compound 0.02 µM) it was 0.775; with Entinostat + Lapatinib (first compound 0.06325 µM), 0.794; in the assay with Entinostat + Lapatinib (first compound 0.2 µM) it was 0.816; with Entinostat + Lapatinib (first compound 0.6325 µM), 0.476. Also, the relative viability in the assay with Entinostat + Lapatinib (first compound 2 µM) came out at 0.321.
With SK-LU-1, the relative viability with SGI-1776 + Navitoclax (first compound 0.08 µM) turned out to be 1.27; with SGI-1776 + Navitoclax (first compound 0.8 µM), 1.35; in the assay with SGI-1776 + Navitoclax (first compound 2.53 µM), 1.01; with SGI-1776 + Navitoclax (first compound 8 µM), 0.468; with Entinostat + Palbociclib (first compound 0.02 µM) it was 0.361; with Entinostat + Palbociclib (first compound 0.06325 µM) it was 0.395. The relative viability with Entinostat + Palbociclib (first compound 0.2 µM) was found to be 0.361; with Entinostat + Palbociclib (first compound 0.6325 µM) it was 0.311; with Entinostat + Palbociclib (first compound 2 µM), 0.316; with Entinostat + Luminespib (first compound 0.02 µM) it was 0.207; with Entinostat + Luminespib (first compound 0.06325 µM) it was 0.202; with Entinostat + Luminespib (first compound 0.2 µM) it was 0.227. The relative viability with Entinostat + Luminespib (first compound 0.6325 µM) was 0.2; with Entinostat + Luminespib (first compound 2 µM) it was 0.212; with Entinostat + Lapatinib (first compound 0.02 µM), 0.825; with Entinostat + Lapatinib (first compound 0.06325 µM), 0.775; with Entinostat + Lapatinib (first compound 0.2 µM) it was 0.55; with Entinostat + Lapatinib (first compound 0.6325 µM) it was 0.573. Further, the relative viability with Entinostat + Lapatinib (first compound 2 µM) was 0.516.
Turning to SK-MES-1, the relative viability in the assay with SGI-1776 + Navitoclax (first compound 0.08 µM) was 1.35; with SGI-1776 + Navitoclax (first compound 0.8 µM) it was 1.23; with SGI-1776 + Navitoclax (first compound 2.53 µM) it was 1.27; with SGI-1776 + Navitoclax (first compound 8 µM), 1.15; in the assay with Entinostat + Palbociclib (first compound 0.02 µM), 0.31; with Entinostat + Palbociclib (first compound 0.06325 µM), 0.395. In addition, the relative viability in the assay with Entinostat + Palbociclib (first compound 0.2 µM) was found to be 0.394; with Entinostat + Palbociclib (first compound 0.6325 µM) it was 0.43; with Entinostat + Palbociclib (first compound 2 µM) it was 0.422; with Entinostat + Luminespib (first compound 0.02 µM), 0.798; with Entinostat + Luminespib (first compound 0.06325 µM) it was 1.03; in the assay with Entinostat + Luminespib (first compound 0.2 µM), 0.891. Also, the relative viability with Entinostat + Luminespib (first compound 0.6325 µM) was 0.882; with Entinostat + Luminespib (first compound 2 µM) it was 0.353; with Entinostat + Lapatinib (first compound 0.02 µM), 0.511; in the assay with Entinostat + Lapatinib (first compound 0.06325 µM), 0.525; with Entinostat + Lapatinib (first compound 0.2 µM), 0.494; in the assay with Entinostat + Lapatinib (first compound 0.6325 µM), 0.488. Moreover, the relative viability in the assay with Entinostat + Lapatinib (first compound 2 µM) was found to be 0.395.
Turning to SW 1573, the relative viability amounted to 1.1 with SGI-1776 + Navitoclax (first compound 0.08 µM); 0.862 with SGI-1776 + Navitoclax (first compound 0.8 µM); 1.15 with SGI-1776 + Navitoclax (first compound 2.53 µM); 0.719 with SGI-1776 + Navitoclax (first compound 8 µM); 0.322 in the assay with Entinostat + Palbociclib (first compound 0.02 µM); 0.486 in the assay with Entinostat + Palbociclib (first compound 0.06325 µM). The relative viability in the assay with Entinostat + Palbociclib (first compound 0.2 µM) was 0.434; with Entinostat + Palbociclib (first compound 0.6325 µM) it was 0.428; with Entinostat + Palbociclib (first compound 2 µM), 0.311; in the assay with Entinostat + Luminespib (first compound 0.02 µM), 0.531; in the assay with Entinostat + Luminespib (first compound 0.06325 µM), 0.35; in the assay with Entinostat + Luminespib (first compound 0.2 µM), 0.162. In addition, the relative viability came out at 0.262 with Entinostat + Luminespib (first compound 0.6325 µM); 0.217 with Entinostat + Luminespib (first compound 2 µM); 1.42 in the assay with Entinostat + Lapatinib (first compound 0.02 µM); 1.23 with Entinostat + Lapatinib (first compound 0.06325 µM); 1.19 with Entinostat + Lapatinib (first compound 0.2 µM); 1.29 with Entinostat + Lapatinib (first compound 0.6325 µM). In addition, in the assay with Entinostat + Lapatinib (first compound 2 µM), the relative viability stood at 0.949.
